{"source": "ChEMBL document CHEMBL3132802", "about": "“Azole derivatives as novel non-iron-chelating inhibitors of prolyl hydroxylase 3 for HIF-1 activation” (Medchemcomm, 2013)", "note": "Activity calls are given as the source filed them. The calls are words filed in the database; no cut-off is given here.", "data": [{"system": "NCI-H446", "experiment": "Effect on HIF1alpha mRNA expression in human NCI-H446 cells after 12 hrs by RT-PCR analysis", "type": "functional, cell-based", "settings": "not given", "values": [{"smiles": "c1ccc2[nH]c(CCn3nnc4ccccc43)nc2c1", "Activity": "inactive"}, {"smiles": "O=C(O)CCn1cncn1", "Activity": "inactive"}, {"smiles": "O=C(O)CCn1ccnc1", "Activity": "inactive"}, {"smiles": "c1ccc2[nH]c(CCn3cncn3)nc2c1", "Activity": "inactive"}, {"smiles": "O=C(O)CCn1cnc2ccccc21", "Activity": "inactive"}, {"smiles": "O=C(O)CCn1nnc2ccccc21", "Activity": "inactive"}]}, {"system": "NCI-H446", "experiment": "Cytotoxicity against human NCI-H446 cells assessed as proliferation rate up to 200 uM after 24 hrs by MTT assay", "type": "cell-based", "settings": "nci-h446, 24 h", "units": {"Activity": "%"}, "values": [{"smiles": "O=C(O)CCn1cncn1", "Activity": "> 80"}, {"smiles": "c1ccc2[nH]c(CCn3cncn3)nc2c1", "Activity": "> 80"}, {"smiles": "O=C(O)CCn1cnc2ccccc21", "Activity": "> 80"}]}, {"system": "not listed separately", "experiment": "Cytotoxicity against human NCI-H446 cells assessed as cell survival up to 200 uM after 24 hrs by MTT assay", "type": "cell-based", "settings": "read-out: Survival", "units": {"viability at 24 h": "%"}, "values": [{"smiles": "c1ccc2[nH]c(CCn3nnc4ccccc43)nc2c1", "viability at 24 h": "> 90"}, {"smiles": "O=C(O)CCn1ccnc1", "viability at 24 h": "> 90"}, {"smiles": "O=C(O)CCn1nnc2ccccc21", "viability at 24 h": "> 90"}]}, {"molecular_target": "Prolyl hydroxylase EGLN3 (Homo sapiens, UniProt Q9H6Z9)", "sequence (Q9H6Z9 whole entry)": "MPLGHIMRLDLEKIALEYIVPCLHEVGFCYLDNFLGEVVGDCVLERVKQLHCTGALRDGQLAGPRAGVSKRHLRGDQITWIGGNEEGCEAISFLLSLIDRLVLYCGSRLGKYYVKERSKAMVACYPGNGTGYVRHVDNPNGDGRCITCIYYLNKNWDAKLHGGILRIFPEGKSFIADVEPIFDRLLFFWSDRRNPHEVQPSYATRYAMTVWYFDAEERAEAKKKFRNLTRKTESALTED", "experiment": "Inhibition of recombinant human PHD3 expressed in Escherichia coli using HIF19 peptide as substrate by fluorescence emission spectroscopy", "settings": "not given", "units": {"IC50": "µM"}, "values": [{"smiles": "c1ccc2[nH]nnc2c1", "note": "[BENZOTRIAZOLE]", "IC50": "> 100"}, {"smiles": "c1ccc2[nH]cnc2c1", "note": "[BENZIMIDAZOLE]", "IC50": "> 100"}]}]}
